≈ marks a conversion by molar mass, not a printed value. Like-named read-outs stand apart in the source and are kept apart here.
Columns and labels:
Hep G2 = test: MTT antiproliferative assay on Hep G2 cells; type: cell-based; conditions: Homo sapiens, HepG2, 72 h
Excerpt: (§1) MTT was purchased from DUCHEFA Biochemie ([…]). Sunitinib, and sodium dodecyl sulfate, bovine serum albuminwere obtained from Sigma Aldrich (Singapore). Sorafenib was purchase from Ontario Chem. Fetal bovine serum (FBS) was obtained from Invitrogen. Human hepatocellular carcinoma cells (HuH-7 and Hep G2), and human diploid fibroblast strain (IMR 90). HuH7 was obtained as gifts from Dr Ho Han Kiat, Department of Pharmacy, NUS. IMR90 and Hep G2 were purchased from American Type Culture Collection (ATCC). HuH-7 cells were cultured in DMEM (Dulbecco's Modified Eagle Medium, high glucose) with 10% v/v fetal bovine serum (FBS), 100 mg/L penicillin G and 100 mg/L streptomycin. IMR 90 cell were cultured in EMEM (Eagle's Minimum Essential Medium), with 10% v/v FBS and 100 mg/L penicillin G and 100 mg/L streptomycin. The cells were sub-cultured when HuH7 or Hep G2 reached a density of 70-80×10^5 cell/T75 flask, and IMR 90 reached 20×10^5 cell/T75 flask. Cells were used within 2-10 passages for viability experiments.
(§2) The anti-proliferative activity of the test compounds were determined by the MTT assay. An aliquot (200 μL, 3×10^4 cells/mL for HuH7, 3.75×10^4 cells/mL for Hep G2, and 2×10^4 cells/mL for IMR 90) of medium was added to each well of the microtitre plate. […] The existing medium was removed from each well and replaced by fresh medium (200 μL) containing a known concentration of test compound. The final concentration of DMSO in each well was maintained at 0.5% v/v. (1% v/v was also utilized if the compounds were not soluble) The test compounds were incubated with the cells for another 72 h at 37 deg C., 5% CO2. The medium was then removed from the well and replaced with FBS free medium (200 μL) and MTT (50 μL of 2 mg/mL solution in phosphate buffer saline, pH 7.4). The phosphate buffer saline comprises 10 mM of potassium phosphate and 137 mM sodium chloride. After incubation (3 h) at 37 deg C., 5% CO2, the supernatant was removed and a solution of 200 μL DMSO and 25 μL Sorenson buffer (0.1 M glycine, 0.1 M sodium chloride, adjusted to pH 10.5 with 0.1 M sodium hydroxide) was added to dissolve the formazan crystals in each well. Vehicle control were cells grown in 1% v/v DMSO/Medium for 72 h, 37 deg C., 5% CO2 while blank controls were wells that contained only 200 μL DMSO and 25 μL Sorenson buffer. Absorbances were measured at 570 nm on a microplate reader (Tecan, Infinite 200). The viability of cells at a given concentration of test compound was determined from the expression:
(§3) [formula] where abs_compound=absorbance of wells containing cells and test compound, abs_vehicle (Not the same as above. Change to abs_vehicle)=absorbance of vehicle control and abs_blank=absorbance of blank control.
(§4) Each concentration of test compound was evaluated at least 3 times on separate occasions, and two different stock solution were used. The IC50 value (concentration that inhibited 50% of cell growth) was determined from the sigmoidal curve obtained by plotting percentage viability versus logarithmic concentration of test compound using GraphPad Prism 5 (San Diego, USA).

HuH7 cells = test: MTT antiproliferative (growth inhibition) assay on HuH7 cells; type: cell-based, human; conditions: for IC50: Homo sapiens, Huh-7, MTT
Excerpt: as §1, §2, §3, §4

IMR 90 = test: MTT antiproliferative assay on non-malignant IMR 90 fibroblasts; type: cell-based; conditions: non-malignant human lung fibroblast IMR 90, MTT, 72 h
Excerpt: as §1, §2, §3, §4

PAMPA permeability (Pe) = type: physicochemical; conditions: for Pe (×10^−6 cm/s): 1% lecithin in dodecane, mean of 3 determinations
Experimental: (§5) Solubility and PAMPA permeability (Pe) are important physicochemical indicators of drug-like character. Determination of aqueous solubility was carried out on Multiscreen® Solubility filter plates (Millipore-MSSLBPC10) from Millipore Corporation (MA, USA). The protocol (PC2445EN00, Millipore Corporation) was followed. Pe determinations were carried out on MultiScreen-IP PAMPA assay (donor) plates (MAIPNTR10) and MultiScreen Receiver Plates (MATRNPS50) from Millipore Corporation (USA) with 1% lecithin (L-α-phosphatidylcholine from lyophilized powder of egg yolk, Sigma Aldrich, USA) in dodecane (ReagentPlus®, Sigma Aldrich, USA) as lipid barrier.

[1] = Aqueous solubility on Multiscreen Solubility filter plates; type: physicochemical; conditions: aqueous solution on Multiscreen Solubility filter plates, aqueous buffer, kinetic from dmso stock, mean of 3 determinations
Experimental: as §5

CYP1A1 = test: EROD assay, induction of CYP1A1 activity in HuH7 cells; type: cell-based, human; conditions: broad range of concentrations spanning growth inhibitory concentrations, FIG. 2
Excerpt: The induction of CYP1A1 activity was monitored by the 7-ethoxyresorufin O-deethylase (EROD) assay. EROD is a CYP1A1 enzyme and induction of its activity would result in the formation of more resorufin, a fluorescent compound. By monitoring resorufin levels in cells that are exposed to test compound and comparing the levels with those in untreated cells, it is possible to identify compounds that induce EROD activity.
Readings were taken at λexcitation of 530 nm and λemission of 590 nm on a fluorometer (Name the plate reader). Background fluorescence of the test compound was determined at the same wavelengths to take into account its contribution to the observed readings. Readings of “blank” wells that contained only media and “control” wells with only HuH7 cells in media (with 1% DMSO) were also determined. β-napthoflavone (BNF), a known inducer of CYP1A1 activity (give ref) was used as a positive control. The extent to which EROD activity was induced is given by the expression: Degree of induction=(FCells+Test Compound−FBlank)/(FControl−FBlank)
Where Fcells+test compound=fluorescence of wells containing treated cells; FBlank=fluorescence of well containing media only; FControl=fluorescence readings of wells containing untreated cells. The test compounds were not fluorescent at the excitation and emission wavelengths used in this assay. Two separate determinations were made for each concentration of test compound.

[2] = 72 h (Table 9), read-out: IC50 (μM) HuH7
[3] = 72 h incubation, mean and SD of 3 or more independent determinations (Tables 1-8), read-out: IC 50

CNS(=O)(=O)c1ccc(/C=C2/C(=O)Nc3cc(Cl)ccc32)cc1 [Compound 1-21, (E)-4-(6-Chloro-2-oxo-1,2-dihydro-indol-3-ylidenemethyl)-N-methyl-benzenesulfonamide]
IC50 (Hep G2): > 30 µM | IC50 (HuH7 cells; [2]): 15.3 ± 0.6 µM | IC50 (HuH7 cells; [3]): 15.3 ± 0.6 µM

CCNS(=O)(=O)c1cccc(/C=C2/C(=O)Nc3cc(Cl)ccc32)c1 [Compound 1-22, (E)-3-(6-Chloro-2-oxo-1,2-dihydro-indol-3-ylidenemethyl)-N-ethyl-benzenesulfonamide]
IC50 (Hep G2): 3.96 ± 0.55 µM | IC50 (HuH7 cells; [2]): 0.84 ± 0.09 µM | IC50 (HuH7 cells; [3]): 0.84 ± 0.09 µM

CCCNS(=O)(=O)c1cccc(C=C2C(=O)Nc3cc(Cl)ccc32)c1 [Compound 1-23, E/Z-3-(6-Chloro-2-oxo-1,2-dihydro-indol-3-ylidenemethyl)-N-propyl-benzenesulfonamide]
IC50 (Hep G2): 1.51 ± 0.11 µM | IC50 (HuH7 cells; [2]): 0.36 ± 0.04 µM | IC50 (HuH7 cells; [3]): 0.36 ± 0.04 µM

CC(C)NS(=O)(=O)c1cccc(C=C2C(=O)Nc3cc(Cl)ccc32)c1 [Compound 1-24, E/Z 3-(6-Chloro-2-oxo-1,2-dihydro-indol-3-ylidenemethyl)-N-isopropyl-benzenesulfonamide]
IC50 (Hep G2): 5.46 ± 0.95 µM | IC50 (HuH7 cells; [2]): 1.93 ± 0.34 µM | IC50 (HuH7 cells; [3]): 1.93 ± 0.34 µM

O=C1Nc2ccc(Cl)cc2/C1=C\c1cccc(C(F)(F)F)c1 [Compound 2-7, (E)-5-Chloro-3-(3-(trifluoromethyl)benzylidene)-1,3-dihydro-indol-2-one, reference compound]
IC50 (Hep G2): 1.5 ± 0.06 µM | IC50 (IMR 90): 9.13 ± 1.12 µM | IC50 (HuH7 cells; [2]): 0.81 ± 0.11 µM | IC50 (HuH7 cells; [3]): 0.81 ± 0.11 µM

O=C1Nc2cc(F)ccc2/C1=C\c1ccccc1F [Compound 3-2, (E)-6-Fluoro-3-(2-fluoro-benzylidene)-1,3-dihydro-indol-2-one]
IC50 (Hep G2): 1.82 ± 0.63 µM | IC50 (IMR 90): 2.06 ± 0.33 µM | IC50 (HuH7 cells; [2]): 0.91 ± 0.15 µM | IC50 (HuH7 cells; [3]): 0.91 ± 0.15 µM

CNS(=O)(=O)c1cccc(/C=C2/C(=O)Nc3cc(F)ccc32)c1 [Compound 3-10, (E)-3-(6-Fluoro-2-oxo-1,2-dihydro-indol-3-ylidenemethyl)-N-methyl-benzenesulphonamide]
IC50 (Hep G2): 4.4 ± 0.43 µM | decline of Pe with time (PAMPA permeability (Pe); 6 h to 16 h): ½ | Pe (×10^−6 cm/s) (PAMPA permeability (Pe); pH 7.4, 6 h): 12.9 ×10^−6 cm/s | Pe (×10^−6 cm/s) (PAMPA permeability (Pe); pH 7.4, 16 h): 5.95 ×10^−6 cm/s | IC50 (IMR 90): 10.4 ± 0.23 µM | solubility at 3 h ([1]; pH 7.4, agitation time 3 h): 37.6 µM (≈ 12.5 µg/mL) | solubility at 24 h ([1]; pH 7.4, agitation time 24 h): 6.32 µM (≈ 2.1 µg/mL) | induction of CYP450 (CYP1A1, EROD) activity (CYP1A1): did not induce CYP450 activity | IC50 (HuH7 cells; [2]): 0.48 ± 0.01 µM | IC50 (HuH7 cells; [3]): 0.48 ± 0.01 µM

CCNS(=O)(=O)c1cccc(/C=C2/C(=O)Nc3cc(F)ccc32)c1 [Compound 3-11, (E)-3-(6-Fluoro-2-oxo-1,2-dihydro-indol-3-ylidenemethyl)-N-ethyl-benzenesulfonamide]
IC50 (Hep G2): 1.61 ± 0.16 µM | IC50 (HuH7 cells; [2]): 0.39 ± 0.07 µM | IC50 (HuH7 cells; [3]): 0.39 ± 0.07 µM

CCCNS(=O)(=O)c1cccc(C=C2C(=O)Nc3cc(F)ccc32)c1 [Compound 3-12, E/Z-3-(6-Fluoro-2-oxo-1,2-dihydro-indol-3-ylidenemethyl)-N-propyl-benzenesulfonamide]
IC50 (Hep G2): 0.72 ± 0.12 µM | IC50 (HuH7 cells; [2]): 0.12 ± 0.01 µM | IC50 (HuH7 cells; [3]): 0.12 ± 0.01 µM | potency relative to 1-10 on HuH7 (HuH7 cells; compared with 1-10 (original lead)): 4 ×

CC(C)NS(=O)(=O)c1cccc(/C=C2/C(=O)Nc3cc(F)ccc32)c1 [Compound 3-13, (E)-3-(6-Fluoro-2-oxo-1,2-dihydro-indol-3-ylidenemethyl)-N-isopropyl-benzenesulfonamide]
IC50 (Hep G2): 4.22 ± 0.48 µM | IC50 (HuH7 cells; [2]): 2.29 ± 0.06 µM | IC50 (HuH7 cells; [3]): 2.29 ± 0.06 µM

CNS(=O)(=O)c1cccc(/C=C2/C(=O)Nc3ccc(F)cc32)c1 [Compound 4-16, (E)-3-(5-Fluoro-2-oxo-1,2-dihydro-indol-3-ylidenemethyl)-N-methyl-benzenesulphonamide]
IC50 (Hep G2): 9.11 ± 0.32 µM | IC50 (IMR 90): 9.92 ± 0.57 µM | IC50 (HuH7 cells; [2]): 1.18 ± 0.02 µM | IC50 (HuH7 cells; [3]): 1.18 ± 0.02 µM

O=C1Nc2cc(F)c(F)cc2/C1=C\c1cccc(C(F)(F)F)c1 [Compound 7-6, (E)-5,6-Difluoro-3-(3-trifluoromethyl-benzylidene)-1,3-dihydro-indol-2-one]
IC50 (Hep G2): 0.69 ± 0.02 µM | IC50 (IMR 90): 8.53 ± 0.6 µM | IC50 (HuH7 cells; [2]): 0.82 ± 0.2 µM | IC50 (HuH7 cells; [3]): 0.82 ± 0.2 µM

CN1C(=O)/C(=C/c2cccc(C(F)(F)F)c2)c2ccccc21 [Compound 8-3, (E)-1-Methyl-3-(3-trifluoromethyl-benzylidene)-1,3-dihydro-indol-2-one]
IC50 (HuH7 cells; [3]): 6.74 ± 1.23 µM

O=C1Nc2cc(Cl)ccc2C1=Nc1cccc(C(F)(F)F)c1 [Compound 8-4, (E/Z) 6-Chloro-3-(3-trifluoromethyl-phenylimino)-1,3-dihydro-indol-2-one]
IC50 (HuH7 cells; [3]): 20.1 ± 1.72 µM

CN1C(=O)/C(=C/c2cccc(C(F)(F)F)c2)c2ccc(Cl)cc21 [Compound 8-5, (E)-6-Chloro-1-methyl-3-(3-trifluoromethyl-benzylidene)-1,3-dihydro-indol-2-one]
IC50 (HuH7 cells; [3]): 1.14 ± 0.19 µM

O=C1Nc2ccc(Cl)cc2C1=Nc1cccc(C(F)(F)F)c1 [Compound 8-6, (E/Z) 5-Chloro-3-(3-trifluoromethyl-phenylimino)-1,3-dihydro-indol-2-one]
IC50 (HuH7 cells; [3]): 20.3 ± 3.53 µM

O=C1Nc2ccc(F)cc2C1=Nc1cccc(C(F)(F)F)c1 [Compound 8-7, (E/Z)-5-Fluoro-3-(3-trifluoromethyl-phenylimino)-1,3-dihydro-indol-2-one]
IC50 (HuH7 cells; [3]): 23.13 ± 0.21 µM

CNC(=O)c1cc(Oc2ccc(NC(=O)Nc3ccc(Cl)c(C(F)(F)F)c3)cc2)ccn1 [Sorafenib, reference compound]
IC50 (Hep G2): 5.6 ± 0.21 µM | IC50 (IMR 90): 11 ± 1.72 µM | IC50 (HuH7 cells; [2]): 5.35 ± 0.49 µM

CCN(CC)CCNC(=O)c1c(C)[nH]c(/C=C2\C(=O)Nc3ccc(F)cc32)c1C [sunitinib, reference compound]
IC50 (Hep G2): 5.07 ± 0.07 µM | IC50 (IMR 90): 6.32 ± 1.24 µM | IC50 (HuH7 cells; [2]): 5.6 ± 0.12 µM

Reference: patent US8877946B2, “Benzylidene-indolinone compounds and their medical use” (National University of Singapore, priority 2011, dated 2014)
